Common to all, as to format: cell-based, Human enterovirus D68
Assay [1] relates to EV-D68 strain USA-MO/18947. The assay is described as follows: CPE inhibition assay in RD cells. The settings on record: Enterovirus D, EVD68, 120 h; RD cells, 100 CCID50 virus, 33° C., five days, strain USA-MO/18947; read-out: Mean EC50 ± SD.
The subject of assay [2] is EV-D68 strain USA-MO/18949. In words: CPE inhibition assay in RD cells. The note with it: Enterovirus D, EVD68, 120 h; RD cells, 100 CCID50 virus, 33° C., five days, strain USA-MO/18949; read-out: Mean EC50 ± SD.
Assay [3] relates to EV-D68 strain USA-IL/18956. The assay is described as follows: CPE inhibition assay in RD cells. The settings on record: Enterovirus D, EVD68, 120 h; RD cells, 100 CCID50 virus, 33° C., five days, strain USA-IL/18956; read-out: Mean EC50 ± SD.
Assay [4] deals with EV-D68 1962 prototype strain (Fermon). In words: CPE inhibition assay in RD cells. The note with it: Enterovirus D, EVD68, 120 h; RD cells, 100 CCID50 virus, 33° C., five days, strain Fermon; read-out: Mean EC50 ± SD.
Assay [5] deals with four EV-D68 strains. In words: microbe, parasite or virus in culture. The settings on record: RD cells.
In assay [6] the test system is EV-D68 strain USA-MO/18947. The assay is described as follows: CPE inhibition assay repeated in HeLa H1 cells. The note with it: Enterovirus D, EVD68.
For assay [7], the system named is EV-D68 strain USA-MO/18949. The assay is described as follows: CPE inhibition assay repeated in HeLa H1 cells. The settings on record: Enterovirus D, EVD68.
Assay [8] concerns EV-D68 strain USA-IL/18956. The assay is described as follows: CPE inhibition assay repeated in HeLa H1 cells. The note with it: Enterovirus D, EVD68.
For a further assay, the system named is EV-D68 strain Fermon. The assay is described as follows: CPE inhibition assay repeated in HeLa H1 cells. The note with it: Enterovirus D, EVD68.
The subject of assay [9] is four EV-D68 strains. In words: CPE inhibition assay in HeLa H1 cells, text summaries over the strains. The settings on record: Enterovirus D, EVD68, all four strains, read-out: EC50 values, range over all four strains in HeLa H1 cells.
The subject of the next assay is EV-D68 Fermon strain. The assay is described as follows: CPE inhibition assay over a range of virus doses. The note with it: Enterovirus D, EVD68; 100-fold virus dose range; strain not given; read-out: EC50 variation over a range of virus doses. The method, then:
Antiviral activity was assessed in a homogeneous cell-based assay that measured inhibition of viral cytopathic effect in human rhabdomyosarcoma cells (RD; ATCC CCL-136). The viruses included three representative EV-D68 strains from the 2014 outbreak (USA-MO/18947, USA-MO/18949, USA-IL/18956) (Brown et al. 2014. Seven Strains of Enterovirus D68 Detected in the United States during the 2014 Severe Respiratory Disease Outbreak. Genome Announc 2:e01201-01214), as well as the 1962 prototype strain (Fermon) (Schieble et al. 1967. A probable new human picornavirus associated with respiratory diseases. Am J Epidemiol 85:297-310). For the CPE inhibition assay, half-log10 dilutions of drug compound (10 μM to 0.001 μM) were combined with 100 CCID50 (50% cell culture infectious dose) of virus and added to monolayers of RD cells (5000 cells per well) in 384-well, white, flat-bottom microplates. Plates were incubated at 33° C. and 5% CO2 for five days, and cell viability was assessed using ATPLite® (Perkin Elmer, Waltham, Mass.) by adding 15 μL of cell lysis buffer and then 15 μL of substrate solution, following the manufacturer's recommendations.
In both studies, the methods were somewhat different from our approach. […] For the other compounds tested, similar EC50 values were observed across this same dose range. […]

The record followed here is US10328128B2, “Treatment of infection by human enterovirus D68” (priority 2014, dated 2019).

Broadly, the EC50 is the concentration at which the effect is half-maximal. Regarding `Cc1cc(CCCOc2c(C)cc(-c3noc(C(F)(F)F)n3)cc2C)on1` [Pleconaril, pleconaril], the EC50 is 4440 ± 550 nM in [1]; 6090 ± 260 nM in assay [2]; 6110 ± 1050 nM in [3]; 380 ± 10 nM in assay [4]; 131 nM in [6]; 358 nM in assay [7]. For the same molecule, the EC50 in [8] is 321 nM; in the assay with EV-D68 strain Fermon, 360 nM; in the assay on four EV-D68 strains [9], 130 to 360 nM; in the assay with EV-D68 Fermon strain it was 300 to 500 nM. Further, the “concentrations at which activity against the 2014 strains was detected” value in the assay with four EV-D68 strains [5] (2014 strains) was “greater than 4 μM”. Further, in the assay on four EV-D68 strains [5] (higher against 2014 strains), the “EC50 against the 2014 strains relative to the Fermon strain” value is “about 10 fold”.
